Data taken from publication PMC11056994, “Potentiating Activity of GmhA Inhibitors on Gram-Negative Bacteria” (Journal of Medicinal Chemistry, 2024).
Where two headings read alike, the source gives them in different places.

Assays:
[1] = target: E. coli GmhA (Escherichia coli, UniProt P63224); format: biochemical; conditions: for IC50: E. coli GmhA, luminescence assay, mean ± SD of at least 3 independent experiments
Experimental: The assay buffer “AB” contained 50 mM HEPES, pH 7.5, 1 mM MnCl2, 25 mM KCl, 0.012% Triton-X100, 1 mM dithiothreitol (DTT), and 0.1 μM myelin basic protein (MBP, Sigma, ref M1891). The following components were added in a white polystyrene Costar plate up to a final volume of 30 μL: 10 μL of inhibitor dissolved in DMSO/water 50/50 and 20 μL of GmhA of E. coli in AB. After 30 min of preincubation at room temperature, 30 μL of the substrate mixture in AB were added in each well to give a final volume of 60 μL. […] After 30 min of incubation at room temperature, 100 μL of the revelation mix were added to a final volume of 160 μL, including the following constituents at the respective final concentrations: 10,000 light units/mL luciferase (Sigma), 20 μM D-luciferin (Sigma), and 100 μM N-acetylcysteamine (Aldrich). Luminescence intensity was immediately measured on a Luminoskan instrument (Thermofisher) and converted into inhibition percentages. For IC50 determinations, the inhibitor was tested at 6 to 10 different concentrations, and the related inhibitions were fitted using XLFit 5 (IDBS) to a classical Langmuir equilibrium model with Hill slope, according to the equation: %inhibition = 100 c^n/(c^n + IC50^n), where c is the compound concentration and n is the Hill coefficient.

[2] = tested on: E. coli C7 (018:K1:H7) LPS biosynthesis; test: Inhibition of bacterial LPS biosynthesis (silver-stained LPS SDS-PAGE); format: cell-based; conditions: for EC50: Escherichia coli
Experimental: The compounds to be tested were prepared in deionized water/DMSO (50/50) solutions and added (25 μL) in sterile culture microtubes. The test bacterial isolate was isolated on tryptic soy agar (TSA) overnight. Isolated colonies were cultured in 10 mL of LB medium at 37 °C up to an OD of typically 0.15. These exponentially growing bacteria were finally diluted to 5 × 10^5 cfu/mL and added in each well (225 μL) for incubation with the compounds at 37 °C for approximately 5 h, up to an OD of ≈0.2–0.4. Some test compounds, e.g., phospho-sugars are actively transported into the bacterial cytosol via the phospho-sugar transporter UhpT (Figure S3). 2.5 μL portion of a 10 mM water solution of glucose-6-phosphate (G6P, 100 μM final concentration, from Sigma) was added in the culture tube in order to induce UhpT expression. LPS extraction: Bacterial cultures were normalized via OD determination, pelleted, and washed with 1 mL of phosphate-buffered-saline (PBS). The pellets were then denatured for 10 min at 95–100 °C in 50 μL of 0.2% sodium dodecyl sulfate (SDS), β-mercaptoethanol 1%, glycerol 36%, Tris 30 mM, pH 7.4, and bromophenol blue 0.001%. Samples were cooled down to room temperature, supplemented with 1.5 μL of proteinase K at 20 mg/mL, incubated for 1 h at 55 °C, and centrifuged for 30 min at 13,000 rpm at 25 °C. The resulting supernatant, containing LPS, was finally analyzed by SDS-PAGE electrophoresis. LPS SDS-PAGE electrophoresis: Polyacrylamide gels (16%/4% acrylamide for separation and concentration, respectively) were prepared, loaded with 8 μL of LPS extracts, and migrated. Silver staining: Gels were incubated overnight in 5% acetic acid/40% ethanol/deionized water, treated by 1% periodic acid/5% acetic acid for 15 min, washed 4 times for 10 min in deionized water, and finally incubated for 18 min in the dark in a silver nitrate solution composed of 56 mL of 0.1 M NaOH (56 mL), 33% aq ammonia (4 mL), 5% AgNO3 (45 mL), and deionized water (195 mL). Gels were then washed extensively in deionized water for 30 min and incubated for 10–15 min (up to LPS band appearance) in the revelation mix composed of 300 mL of deionized water (300 mL), 36.5% formaldehyde (0.3 mL, Fluka), and 2.3 M citric acid (0.1 mL). The revelation was stopped by incubating the gels in 10% acetic acid for 5 min. Gels were finally washed in deionized water, numerized with a Samsung PL51 camera, and analyzed by ImageJ software. The percentage of inhibition of LPS heptosylation was defined as the relative area of the Re-LPS band compared to the cumulated areas of Re-LPS and Core-LPS bands.

[3] = HepG2 cytotoxicity; format: cell-based; conditions: human; n = 2
Experimental: HepG2 cells (LGC Promochem, ref HB-8065) in EMEM medium supplemented with fetal bovine serum (10%), Ampicillin (100 mg/L), and Streptomycin (100 mg/L) were plated on cell culture plates (Costar 3596, 2 × 10^4 cells/well) and incubated overnight at 37 °C in 5% CO2. The culture medium was then aspirated and replaced by supplemented EMEM (210 μL including 2% DMSO) containing dilutions of compounds. Plates were incubated overnight at 37 °C in 5% CO2. Cell viability was determined by the Celltiter Aqueous One Cell Proliferation Assay (G3581–80, Promega) according to the manufacturer’s recommendations, using a Multiskan absorption reader (490 nm).

[4] = tested on: E. coli C7; test: MIC of the compounds alone on E. coli C7; format: cell-based
Experimental: Then, we investigated the cytotoxicity and the ability of such inhibitors to potentiate the antimicrobial activity of macrolide and rifamycin antibiotics.
(§1) The compound to be tested was diluted in 50 mM HEPES buffer (pH 7.4) from 10 mM stock solution in DMSO. Five microliters of compound dilution or buffer were distributed in a sterile clear round-bottom 96-well polystyrene microplate (Corning). Five microliters of serial 2-fold dilutions of reference antibiotics [Erythromycin (Fluka), Rifampicin (Fluka)] in DMSO were added. An exponentially growing preculture of E. coli C7 (O18:K1:H7) in LB was diluted to 10^4 cfu/mL and supplemented with 100 μM G6P, and 90 μL of this suspension were added to the microplates. After overnight incubation at 37 °C, the MIC of the antibiotics were determined for each test compound concentration as the lowest antibiotic concentration for which no bacterial pellet is visible without magnification.

[5] = tested on: E. coli C7; test: Sensitization to killing by the complement of human serum; format: cell-based; conditions: E. coli C7 grown 5 h with 0.3 and 1 mM compound 24; in 30 min
Experimental: The E. coli C7 wild type and gmhA-deleted strains were isolated from TSA plates and grown overnight in 10 mL of LB broth at 35 °C. […] After 5 h of incubation under shaking at 37 °C, the bacterial inoculum was adjusted to 10^5 cfu/mL in 20% LB broth mixed with 80% human serum (Biopredic) and filtered on 0.45 μm pore size membranes and used as such, or further heated for 30 min at 56 °C for complement deactivation. A volume of 250 μL of each condition was finally incubated at 37 °C in microtubes, and aliquots of 10 μL were sampled at 0, 15, 30, 60, 120, and 180 min for bacterial enumeration in duplicate.

[6] = tested on: E. coli C7 (O18:K1:H7); test: MIC determination of antibiotics combined with a GmhA inhibitor; format: cell-based; conditions: Escherichia coli, n = 1
Experimental: as §1

[7] = tested on: E. coli C7 gmhA-; test: Complementation of E. coli C7-gmhA- by H7P (LPS SDS-PAGE, UhpT transport); format: cell-based
Experimental: Figure S3: Role of UhpT phospho-sugar transporter in the transport of D-glycero-D-manno-heptose
7-phosphate (H7P). Complementation of E. coli C7-gmhA- by the GmhA product H7P. Silver-stained
LPS SDS-PAGE of E. coli C7 WT (lane 1) or gmhA- (lanes 2 -4). Culture in presence of 300 µM H7P (lane
100 µM glucose -6-phosphate (G6P) allows a strong transport of H7P, as evidenced by the restoration
(1 picture or pasted object on this page, not shown here)

[8] = tested on: E. coli C7 (O18:K1:H7); test: Time-kill kinetics of rifampicin in combination with compound 17; format: cell-based; conditions: 17 300 μM alone or rifampicin 1 mg/L alone
Experimental: Rifampicin (Fluka) was diluted in DMSO, and the compound to be tested was diluted in water from 50 mM stock solution in 50 mM HEPES buffer, pH 7.4. Ten microliter of DMSO was distributed in sterile 1.5 mL polypropylene microtubes (Eppendorf). 2.5 μL of compound dilution or water, 2.5 μL of Rifampicin or DMSO, 2.5 μL of 10 mM G6P in water (100 μM final concentration), and 230 μL of LB were added to the microtubes. E. coli C7 (O18:K1:H7) was grown in 5 mL of LB broth at 37 °C until mid-log phase. The suspension was then diluted in LB to obtain a 100× inoculum of 5 × 10^7 cfu/mL, 2.5 μL of which were added to each microtube (5 × 10^5 cfu/mL final inoculum). The microtubes were incubated at 37 °C, and aliquots of 10 μL were sampled at 0, 2, 4, 6, 8, and 24 h for bacterial enumeration in duplicate.

[9] = tested on: GmhA; set-up: method as in PMID 21922563; conditions: cited from earlier work
[10] = tested on: wild-type E. coli strain; set-up: method as in PMID 21922563; conditions: cited from earlier work
[11] = E. coli C7 LPS biosynthesis by SDS-PAGE, mean ± SD of 3 experiments for 17 and 24, n = 1 for others, read-out: EC50
[12] = antibiotic alone, E. coli C7, 100 μM G6P, read-out: MIC alone
[13] = antibiotic combined with 100 μM 17, E. coli C7, 100 μM G6P, read-out: MIC +100 μM cpd 17

E. coli GmhA, sequence (P63224 whole entry): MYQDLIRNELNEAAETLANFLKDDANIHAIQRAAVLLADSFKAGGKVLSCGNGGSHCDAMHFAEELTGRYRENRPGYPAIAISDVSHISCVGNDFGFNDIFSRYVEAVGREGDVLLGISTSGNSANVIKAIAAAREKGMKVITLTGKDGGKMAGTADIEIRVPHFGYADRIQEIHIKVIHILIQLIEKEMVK

## O=CN(O)C[C@H](O)[C@H](O)[C@H](O)CP(=O)(O)O [Compound 20]
[1]
  IC50: 2.2 ± 0.5 µM
[2]; [11]
  EC50: > 3000 µM

## O=CN(O)C[C@H](O)[C@H](O)[C@H](O)CCP(=O)([O-])O.[Na+] [Compound 24]
[3]
  CC50: > 1000 µM
[4]; Escherichia coli, C7, read-out: MIC E. coli C7
  MIC: > 1000 µM
[4]; compound alone, n = 2, read-out: MIC E. coli C7
  MIC: >1000 µM
[5]
  reduction of the bacterial load in 80% human serum: 3 log
[2]
  EC50: 22 ± 4 µM

## O=CN(O)C[C@H](O)[C@H](O)[C@H](O)/C=C/P(=O)(O)O [Compound 25]
[1]
  IC50: 0.15 ± 0.03 µM
[2]
  EC50: 1300 µM

## O=CN(O)C[C@H](O)[C@H](O)[C@H](O)C(O)C(O)P(=O)(O)O (some centres unmarked) [Compound 27]
[1]
  IC50: 2.3 ± 0.6 µM
[2]
  EC50: > 3000 µM

## O=CN(O)C[C@H](O)[C@H](O)[C@H](O)C(O)CP(=O)(O)O (some centres unmarked) [Compound 31]
[1]
  IC50: 0.25 ± 0.02 µM
[2]
  EC50: 590 µM

## O=CN(O)C[C@H](O)[C@H](O)[C@H](O)CC(O)P(=O)(O)O (some centres unmarked) [Compound 41]
[1]
  IC50: 0.075 ± 0.009 µM
[2]
  EC50: 750 µM

## O=CN(O)C[C@@H](O)[C@H](O)[C@H](O)CCP(=O)(O)O [Compound 54]
[1]
  IC50: 9.2 ± 1.6 µM
[2]
  EC50: > 300 µM

## O=CN(O)C[C@H](O)C[C@H](O)CCP(=O)(O)O [Compound 68]
[1]
  IC50: 3 ± 0.2 µM
[2]; [11]
  EC50: 1200 µM

## O=CN(O)C[C@H](O)[C@H](O)[C@H](O)CC(F)P(=O)([O-])O.[Na+] (some centres unmarked) [Compound 76]
[1]
  GmhA inhibition IC50 (in words): low nanomolar range
[2]
  EC50: 76 µM

## O=CN(O)C[C@H](O)[C@H](O)[C@H](O)CC(F)(F)P(=O)(O)O [Compound 84]
[2]
  EC50: 510 µM

## O=C(NO)[C@@H](O)[C@H](O)[C@H](O)[C@H](O)COP(=O)(O)O [Compound 96]
[1]
  GmhA inhibition IC50 (in words): low nanomolar range
  IC50: 0.016 ± 0.006 µM
[2]; E. coli culture of the LPS assay
  concentration above which bacterial growth is affected: > 100 µM
[2]; [11]
  EC50: > 100 µM

## CC[C@H]1OC(=O)[C@H](C)[C@@H](O[C@H]2C[C@@](C)(OC)[C@@H](O)[C@H](C)O2)[C@H](C)[C@@H](O[C@@H]2O[C@H](C)C[C@H](N(C)C)[C@H]2O)[C@](C)(O)C[C@@H](C)C(=O)[C@H](C)[C@@H](O)[C@]1(C)O [Erythromycin]
[6]; [12]
  MIC: 32 µg/mL
[6]; [13]
  MIC: 1 µg/mL

## O=C[C@@H](O)[C@@H](O)[C@H](O)[C@H](O)[C@H](O)COP(=O)(O)O [H7P, D-glycero-D-manno-heptose 7-phosphate]
[7]; 300 µM H7P, without G6P (lane 3)
  LPS profile restoration in gmhA- strain: restores some full length LPS
[7]; H7P with UhpT induction by 100 µM glucose-6-phosphate (lane 4)
  LPS profile restoration in gmhA- strain: full LPS profile

## CO[C@H]1/C=C/O[C@@]2(C)Oc3c(C)c(O)c4c(O)c(c(/C=N/N5CCN(C)CC5)c(O)c4c3C2=O)NC(=O)/C(C)=C\C=C\[C@H](C)[C@H](O)[C@@H](C)[C@@H](O)[C@@H](C)[C@H](OC(C)=O)[C@@H]1C [Rifampicin]
[6]; [12]
  MIC: 4 µg/mL
[6]; [13]
  MIC: 0.25 µg/mL
[8]
  effect on bacterial growth, compound alone: did not alter at all the bacterial growth

## COC1O[C@H]([C@H](O)COP(=O)(O)O)[C@@H](O)[C@H](O)[C@H]1O (stereo partly drawn) [methyl 7-O-phosphoryl-D-glycero-D-gluco-heptopyranoside]
[9]
  IC50 values (in words): low micromolar range
[10]
  heptosylation inhibition at 1 mM: too high to demonstrate heptosylation inhibition
